Measurements reported in publication doi:10.1101/2024.07.23.604814v1 (biorxiv, 2024).
pIC50: −log10 of the molar value.

Target: T1, mouse sEH (Mus musculus, UniProt P34914)
T1 sequence (P34914 1-554): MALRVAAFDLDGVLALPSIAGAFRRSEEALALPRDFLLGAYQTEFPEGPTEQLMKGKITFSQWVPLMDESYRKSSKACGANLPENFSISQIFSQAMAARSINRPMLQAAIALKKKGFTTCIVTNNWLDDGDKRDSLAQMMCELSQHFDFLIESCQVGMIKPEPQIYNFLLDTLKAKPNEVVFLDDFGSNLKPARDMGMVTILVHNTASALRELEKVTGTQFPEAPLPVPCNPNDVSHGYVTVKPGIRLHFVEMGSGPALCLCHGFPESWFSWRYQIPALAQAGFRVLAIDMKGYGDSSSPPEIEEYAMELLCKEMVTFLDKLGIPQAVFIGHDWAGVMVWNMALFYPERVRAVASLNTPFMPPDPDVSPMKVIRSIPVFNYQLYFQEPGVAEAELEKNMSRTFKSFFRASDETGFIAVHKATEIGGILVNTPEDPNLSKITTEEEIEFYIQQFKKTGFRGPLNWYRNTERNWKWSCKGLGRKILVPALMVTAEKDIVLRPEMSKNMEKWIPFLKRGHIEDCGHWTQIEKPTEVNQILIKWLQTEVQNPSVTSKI
Test: fluorogenic substrate hydrolase assay
Format: biochemical
Conditions: recombinant purified enzyme, average of triplicates

| pIC50 | Structure (SMILES) |
| --- | --- |
| 8.85 | O=C1CCC(N2C(=O)c3cccc(NCCCCCC(=O)N4CCC(NC(=O)Nc5ccc(OC(F)(F)F)cc5)CC4)c3C2=O)C(=O)N1 (stereo not drawn) [compound 9] |
| 8.03 | Cc1ccc(C(=O)NCCOCCOCCOCCOCCNC(=O)c2ccc(O[C@H]3CC[C@H](NC(=O)Nc4ccc(OC(F)(F)F)cc4)CC3)cc2)cc1N1CCC(=O)NC1=O [compound 5] |
| 8.33 | O=C(COc1ccc(C2CCC(=O)NC2=O)cc1)NCCOCCOCCOCCOCCNC(=O)c1ccc(O[C@H]2CC[C@H](NC(=O)Nc3ccc(OC(F)(F)F)cc3)CC2)cc1 (stereo partly drawn) [compound 3] |
| 8.80 | O=C1CCC(N2Cc3c(NCCOCCOCCOCCNC(=O)c4ccc(O[C@H]5CC[C@H](NC(=O)Nc6ccc(OC(F)(F)F)cc6)CC5)cc4)cccc3C2=O)C(=O)N1 (stereo partly drawn) [compound 1] |
| 8.40 | O=C(COc1cccc2c1C(=O)N(C1CCC(=O)NC1=O)C2=O)NCCOCCOCCOCCOCCNC(=O)c1ccc(O[C@H]2CC[C@H](NC(=O)Nc3ccc(OC(F)(F)F)cc3)CC2)cc1 (stereo partly drawn) [1a, compound 1a] |
| 8.22 | O=C(COc1ccc(N2CCC(=O)NC2=O)cc1)NCCOCCOCCOCCOCCNC(=O)c1ccc(O[C@H]2CC[C@H](NC(=O)Nc3ccc(OC(F)(F)F)cc3)CC2)cc1 [compound 4] |
| 8.51 | Cc1ncsc1-c1ccc(CNC(=O)[C@@H]2C[C@@H](O)CN2C(=O)[C@@H](NC(=O)CCCCCCC(=O)N2CCC(NC(=O)Nc3ccc(OC(F)(F)F)cc3)CC2)C(C)(C)C)cc1 [compound 12] |
| 9.19 | O=C1CCC(N2C(=O)c3ccc(NCCOCCOCCOCCOCCNC(=O)c4ccc(O[C@H]5CC[C@H](NC(=O)Nc6ccc(OC(F)(F)F)cc6)CC5)cc4)cc3C2=O)C(=O)N1 (stereo partly drawn) [compound 2] |
| 8.52 | O=C1CCC(N2C(=O)c3cccc(NCCOCCOCCC(=O)N4CCC(NC(=O)Nc5ccc(OC(F)(F)F)cc5)CC4)c3C2=O)C(=O)N1 (stereo not drawn) [compound 10] |
